Assay results: patent US8183233B2, “Stable pharmaceutical formulations” (Baxter International Inc., priority 2008, dated 2012)
Like-named read-outs stand apart in the source and are kept apart here.

Tests used:
[1] = 10 mL concentrate in 250 mL infusion diluent, cited from earlier work
[2] = Predicted shelf-life (t90) of meropenem from degradation kinetics; type: physicochemical
Protocol: The stability and degradation kinetics of meropenem have been studied. Meropenem is predicted to have a shelf-life (t90) of about 0.5 day at 0° C. Extrapolated to −25° C., the predicted shelf-life is less than one month. Meropenem also polymerizes at higher drug concentration by a second-order mechanism. If one requires a meropenem formulation that is ready-to-use, there is value in being able to stabilize these compounds in frozen aqueous media.

[3] = stored at or below −20° C.; cited from earlier work

CCC(C)CC(C)CCCCCCCCC(=O)N[C@H]1C[C@@H](O)[C@@H](NCCN)NC(=O)[C@@H]2[C@@H](O)CCN2C(=O)[C@H]([C@H](O)CCN)NC(=O)[C@H]([C@H](O)[C@@H](O)c2ccc(O)cc2)NC(=O)[C@@H]2C[C@@H](O)CN2C(=O)[C@H]([C@@H](C)O)NC1=O (some centres unmarked) [Caspofungin, Caspofungin acetate]
Time within which the infusion solution must be used ([1]; stored at ≦25° C.): ≤ 24 h | Time within which the infusion solution must be used ([1]; stored refrigerated at 2 to 8° C.): ≤ 48 h

C[C@@H](O)[C@H]1C(=O)N2C(C(=O)O)=C(S[C@@H]3CN[C@H](C(=O)N(C)C)C3)[C@H](C)[C@H]12 [Meropenem]
Predicted shelf-life (t90) ([2]; at 0° C.): about 0.5 day | Predicted shelf-life ([2]; extrapolated to −25° C.): less than one

CO/N=C(\C(=O)N[C@@H]1C(=O)N2C(C(=O)O)=C(CSc3nc(=O)c(=O)[nH]n3C)CS[C@H]12)c1csc(N)n1 [ceftriaxone sodium]
Time for which the frozen agent is stable [3]: at least 18 months
